In the oligonucleotide strings, read from the 5' end, every base follows the letter of its sugar. An asterisk marks phosphorothioate; unmarked linkages are phosphodiester. Other units and linkages are bracketed, terminal groups are in braces. A string of capitals states the bases alone. d = 2'-deoxy (DNA)
Columns and labels:
PARP [1] = test: PARP cleavage by immunoblot in T47D cells; format: cell-based, human
Method: (§1) As a further measure of apoptosis, cleavage of PARP was next examined. This protein is cleaved by caspases and results in appearance of Mr 85,000 and Mr 24,000 fragments, the latter of which binds irreversibly to broken ends of DNA, which assures irreversibility of apoptosis. Both breast cancer cell lines were transfected with antisense p21 and random sequence ODNs and immunoblotted with PARP antibody. […] T47D (A) and MCF7 (B) cells were grown to confluence, serum starved for 24 hours, and lipofected with antisense p21 or control ODN at the concentrations indicated. cont refers to nontransfected cells, and lipofect refers to cells treated with lipofectin but no DNA. The cells were lysed, and equal protein quantities were electrophoresed and immunoblotted with PARP antibody. The degradation product of PARP (Mr 85,000) is indicated by an arrow. MAPK is a loading control; a positive PARP cleavage control is Jurkat whole cell lysate.

PARP [2] = test: PARP cleavage by immunoblot in MCF7 cells; format: cell-based, human
Method: as §1

caspase-3 = test: Caspase-3 activity (CaspACE colorimetric assay) in T47D cells; format: cell-based, human; conditions: 200 to 400 nM
Method: Caspase-3 Activity: The CaspACE Assay System was used to measure the activity of caspase-3. After incubation under appropriate conditions, the cells were lysed in CaspACE lysis buffer, and protein concentration was determined by dye reagent protein assay (Bio-Rad, Hercules, Calif.). […] The lysates with equal protein amounts were incubated with DEVD-p-nitroaniline substrate for 4 hours at 37° C. The reaction products were detected at 405 nm using a PowerWave X automated plate reader (Bio-Tek Instruments).
As another confirmatory test for antisense p21 ODN-mediated apoptosis, caspase-3 activation was assessed. Members of the caspase family of proteases are essential components of an evolutionarily conserved cell death pathway in multicellular eukaryotes and play key roles in inflammation and apoptosis in mammalian cells. Caspase-3 has substrate specificity for the amino acid sequence DEVD (Asp-Glu-Val-Asp) and is inhibited by the tetrapeptide inhibitor Ac-DEVD-CHO; its catalytic activity was assessed colorimetrically using the labeled Ac-DEVD-pNA substrate. […] T47D cells were grown to confluence, serum starved for 24 hours, and lipofected with antisense p21 or control ODN at the concentrations indicated. Caspase-3 activity was assessed as described in “Capase-3 Activity” using a colorimetric method. […]

p21^Waf1/Cip1 = test: p21 protein level by Western blot in A10 VSM cells; format: cell-based, rat; conditions: for p21 levels after ionizing radiation: 12 Gy, up to 4 hours
Method: Western blots: Cells were grown to confluence in 6 cm culture dishes and serum deprived. After transfection and or treatment with appropriate agonist, the cells were washed with phosphate-buffered saline and lysed in lysis buffer and the supernatant was Western blotted as described (Weiss et al., 1998 Am. J. Physiol., 274, p. C1521-C1529).
To determine whether antisense transfection with p21^Waf1/Cip1 antisense oligonucleotides indeed decreases p21^Waf1/Cip1 protein levels, p21^Waf1/Cip1 levels after antisense transfection were examined employing the fact that PMA is a potent inducer of p21^Waf1/Cip1 (Huang et al., 1995 Proc. Natl. Acad. Sci. U.S.A., 92, p. 4793-4797; Michieli et al., 1994 Cancer Res., 54, p. 3391-3395). Since p21^Waf1/Cip1 protein levels were induced in VSM cells between 2 and 6 hours after PMA stimulation (FIG. 4), the p21^Waf1/Cip1 levels in transfected cells after similar times of PMA stimulation were examined. […] There was no effect of the p21^Waf1/Cip1 sense (SEQ. ID NO.:2) control oligodeoxynucleotide on cellular p21^Waf1/Cip1 levels (compare with FIG. 4).
To check for specificity of protein inhibition by the antisense p21^Waf1/Cip1 oligodeoxynucleotide (SEQ. ID NO.: 1), protein levels of p21^Waf1/Cip1 and p27^Kip1 after transfection with antisense p21^Waf1/Cip1 oligodeoxynucleotide (SEQ. ID NO.:1) were examined. In these experiments the ability of antisense oligodeoxynucleotides (SEQ. ID NO.:1) to inhibit maximally stimulated CKI expression (see FIG. 4) was assessed. The cells were stimulated with PMA for 4 hours at various times after overnight serum starvation.
Western blots: Cells were grown to confluence in 6 cm culture dishes and serum deprived. After transfection and or treatment with appropriate agonist, conditioned medium was removed and saved and the cells were washed with phosphate-buffered saline and lysed in lysis buffer. Both supernatant and cell lysate were normalized to the lysate protein concentrations and Western blotted as described (Weiss R H, et al. Am J Physiol 274:C1521-C1529, 1998).
To confirm that p21 levels were increased after exposure to ionizing radiation, and that the oligonucleotides inhibit this phenomenon in A10 cells, p21 protein levels under these conditions were assayed. […] With the exception of the initial decrease in p21 levels at ½ and 1 hours, the results with the control oligonucleotides were similar to that observed in non-transfected cells.
Adriamycin is a prototypical DNA damaging agent used in the treatment of a variety of cancers. The predominantly G2 arrest seen after Adriamycin treatment has been associated with an increase in p21 levels in some cell lines (Siu W Y, et al. FEBS Lett 461:299-305, 1999). In order to determine whether similar augmentation of p21 is seen in A10 VSM cells and whether the antisense p21 oligonucleotide is inhibiting this response, these cells were treated with Adriamycin either with or without first transfecting the cells with the antisense and control oligonucleotides. Confluent VSM cells were transfected with antisense oligonucleotide to p21 or random sequence control oligonucleotide as described above. After 24 hours, the cells were exposed to Adriamycin (500 ng/ml), lysed at the indicated times after exposure, and Western blotted with p21 antibody.
Using a random sequence phosphorothioate oligodeoxynucleotide (SEQ. ID NO.:3) as a control, the effect of the antisense oligodeoxynucleotide to p21 (400 nM) on p21 and α-actin protein expression in A10 VSM cells, was examined. The lysates, normalized for protein content, were Western blotted with either p21 or α-actin antibody.

Substance	PARP cleavage (Mr 85,000 product) (PARP [1])	PARP cleavage (Mr 85,000 product) (PARP [2])	caspase-3 cleavage (activity) (caspase-3)	p21 protein level (p21^Waf1/Cip1; A10 VSM cells, 400 nM)	p21 levels after ionizing radiation (p21^Waf1/Cip1; A10 VSM cells)	p21^Waf1/Cip1 protein after maximal stimulation with PMA (p21^Waf1/Cip1; A10 VSM cells, PMA for 4 hours)	PMA-induced p21^Waf1/Cip1 levels (p21^Waf1/Cip1; A10 VSM cells, PMA stimulation up to 6 hours after transfection)	Adriamycin-induced increase of p21 levels (p21^Waf1/Cip1; transfected VSM cells, Adriamycin 500 ng/ml)
5′-ATC-CCC-AGC-CGG-TTC-TGA-CAT-3′ (antisense ATCCCCAGCCGGTTCTGACAT; listed as DNA, chemistry not fully specified) [antisense p21 ODN]	marked PARP cleavage	marked PARP cleavage	marked dose-dependent caspase-3 cleavage					
5′-GACATCACCAGGATCGGACAT-3′				marked inhibition	consistently low	completely inhibited	significant attenuation	marked attenuation
5′-TGG ATC CGA CAT GTC AGA-3′ (dT*dG*dG*dA*dT*dC*dC*dG*dA*dC*dA*dT*dG*dT*dC*dA*dG*dA) [random sequence control oligonucleotide, reference compound]	proapoptotic effect	proapoptotic effect	no change		initial slight inhibition			

Reference: patent US20050043262A1, “Novel specific inhibitor of the cyclin kinase inhibitor p21Waf1/Cip1 and methods of using the inhibitor” (priority 2000, published 2005)
